Data reported in ChEMBL document CHEMBL1153907, “Synthesis and biological evaluation of C-12 triazole and oxadiazole analogs of salvinorin A” (Bioorg Med Chem Lett, 2009).

Legend:
[1] = biological target: T1, Kappa-type opioid receptor (Homo sapiens, UniProt P41145); assay: Displacement of [3H]diprenorphine from human kappa opioid receptor expressed in CHO cells; format: cell-based
[2] = biological target: Mu-type opioid receptor (Rattus norvegicus, UniProt P33535); assay: Displacement of [3H]diprenorphine from rat mu opioid receptor expressed in CHO cells; format: cell-based
[3] = biological target: Delta-type opioid receptor (Mus musculus, UniProt P32300); assay: Displacement of [3H]diprenorphine from mouse delta opioid receptor expressed in CHO cells; format: cell-based
[4] = biological target: T1, Kappa-type opioid receptor; assay: Agonist activity at human kappa opioid receptor expressed in CHO cells assessed as increase in […] [35S]GTPgammaS binding; format: functional, cell-based
[5] = biological target: T1, Kappa-type opioid receptor; assay: Displacement of [3H]diprenorphine from human kappa opioid receptor expressed in CHO cells in presence of EGTA; format: cell-based

Mu-type opioid receptor, sequence (P33535 whole entry): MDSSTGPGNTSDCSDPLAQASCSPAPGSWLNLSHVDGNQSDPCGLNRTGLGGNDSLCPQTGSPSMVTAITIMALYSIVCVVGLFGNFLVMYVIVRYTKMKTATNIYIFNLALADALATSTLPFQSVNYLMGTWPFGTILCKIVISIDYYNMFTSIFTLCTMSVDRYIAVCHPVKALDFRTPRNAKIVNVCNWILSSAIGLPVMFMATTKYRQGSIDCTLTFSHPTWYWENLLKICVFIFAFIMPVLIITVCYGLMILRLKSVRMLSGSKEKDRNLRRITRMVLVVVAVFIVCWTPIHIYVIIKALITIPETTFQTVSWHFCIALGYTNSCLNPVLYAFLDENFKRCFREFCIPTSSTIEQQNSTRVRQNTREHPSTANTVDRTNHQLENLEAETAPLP
T1 sequence (P41145 whole entry): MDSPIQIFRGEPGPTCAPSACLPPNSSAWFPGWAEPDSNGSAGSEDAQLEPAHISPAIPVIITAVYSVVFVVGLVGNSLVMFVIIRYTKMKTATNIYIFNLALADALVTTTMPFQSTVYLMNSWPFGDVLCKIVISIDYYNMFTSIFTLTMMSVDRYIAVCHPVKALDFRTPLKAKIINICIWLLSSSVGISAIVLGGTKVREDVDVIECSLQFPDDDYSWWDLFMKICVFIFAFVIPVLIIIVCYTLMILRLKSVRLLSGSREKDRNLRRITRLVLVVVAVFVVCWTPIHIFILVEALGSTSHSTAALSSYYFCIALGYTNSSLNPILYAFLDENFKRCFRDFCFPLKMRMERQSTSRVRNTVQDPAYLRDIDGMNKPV
Delta-type opioid receptor, sequence (P32300 whole entry): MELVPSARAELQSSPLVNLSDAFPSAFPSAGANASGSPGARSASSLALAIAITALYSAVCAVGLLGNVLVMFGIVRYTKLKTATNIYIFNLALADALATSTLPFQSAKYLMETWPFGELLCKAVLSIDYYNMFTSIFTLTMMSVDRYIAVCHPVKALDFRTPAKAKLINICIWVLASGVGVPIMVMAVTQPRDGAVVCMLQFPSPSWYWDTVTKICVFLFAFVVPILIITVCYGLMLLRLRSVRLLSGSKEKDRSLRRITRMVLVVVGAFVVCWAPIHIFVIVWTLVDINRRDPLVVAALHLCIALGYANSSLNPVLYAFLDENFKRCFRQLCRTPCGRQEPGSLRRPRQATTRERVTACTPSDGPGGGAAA

COC(=O)[C@@H]1C[C@H](OC(C)=O)C(=O)[C@H]2[C@@]1(C)CC[C@H]1C(=O)O[C@H](c3c[nH]nn3)C[C@]21C
> 1000 nM: Ki [1] | Ki [2] | Ki [3]

COC(=O)[C@@H]1C[C@H](OC(C)=O)C(=O)[C@H]2[C@@]1(C)CC[C@H]1C(=O)O[C@H](c3nc(C)no3)C[C@]21C
> 1000 nM: EC50 [4] | Ki [1] | Ki [5] | Ki [2] | Ki [3]

COC(=O)[C@@H]1C[C@H](OC(C)=O)C(=O)[C@H]2[C@@]1(C)CC[C@H]1C(=O)O[C@H](c3cn(C)nn3)C[C@]21C
> 1000 nM: Ki [1] | Ki [2] | Ki [3]

COC(=O)[C@@H]1C[C@H](OC(C)=O)C(=O)[C@H]2[C@@]1(C)CC[C@H]1C(=O)O[C@H](c3cn(COC(=O)C(C)(C)C)nn3)C[C@]21C
> 1000 nM: Ki [1] | Ki [2] | Ki [3]

COC(=O)[C@@H]1C[C@H](OC(C)=O)C(=O)[C@H]2[C@@]1(C)CC[C@H]1C(=O)O[C@H](c3cn(Cc4ccccc4)nn3)C[C@]21C
> 1000 nM: Ki [1] | Ki [2] | Ki [3]

COC(=O)[C@@H]1C[C@H](OC(C)=O)C(=O)[C@@H]2[C@@]3(C)C[C@@H](c4c[nH]nn4)OC(=O)[C@H]3CC[C@]21C
> 1000 nM: Ki [1] | Ki [2] | Ki [3]

CCn1cc([C@@H]2C[C@]3(C)[C@H]4C(=O)[C@@H](OC(C)=O)C[C@@H](C(=O)OC)[C@]4(C)CC[C@H]3C(=O)O2)nn1
> 1000 nM: Ki [1] | Ki [2] | Ki [3]
